“And” between values parts separate entries of the source, which are not always exact repeats. Equal entries are not always repeated. The source made the active and inactive calls. How the calls were made is not given here.
molecular target: Dual specificity protein phosphatase 6 (Rattus norvegicus) (UniProt Q64346); assay: redox-state modulators of MKP-3 activity, biochemical, rat enzyme, secondary assay (AID 1054); details: recombinant MKP-3 phosphatase activity
Sequence (Q64346 whole entry, looked up): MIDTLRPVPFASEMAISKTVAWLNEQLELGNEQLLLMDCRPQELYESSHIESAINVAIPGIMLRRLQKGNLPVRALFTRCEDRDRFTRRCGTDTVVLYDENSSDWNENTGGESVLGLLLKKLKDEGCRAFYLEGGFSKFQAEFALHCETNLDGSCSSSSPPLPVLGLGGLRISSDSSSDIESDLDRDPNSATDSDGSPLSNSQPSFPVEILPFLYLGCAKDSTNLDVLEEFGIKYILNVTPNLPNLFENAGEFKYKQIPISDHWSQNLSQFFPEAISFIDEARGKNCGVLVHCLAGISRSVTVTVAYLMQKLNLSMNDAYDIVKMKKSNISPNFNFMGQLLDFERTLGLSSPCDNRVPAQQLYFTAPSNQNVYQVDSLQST

Row | IC50 | SMILES
1 | > 100 µM (inactive) | CCCCCCn1c(=O)nc(NCc2ccccc2OC)[nH]c1=O
2 | 4.16 µM | CCC(CC)NC(=S)c1ccc(O)c(OC)c1
3 | > 100 µM (inactive) | Cc1cc(NC(=O)/C=C/c2cccs2)no1
4 | > 100 µM (inactive) | O=C(O)[C@H](O)c1ccccc1
5 | 60.1 µM | O=C(O)C1Nc2c(cccc2N2CCOCC2)C2C=CCC12 (stereo not given)
6 | 7.53 µM | COc1cc(C(=S)NCc2ccc(F)c(C)c2)ccc1O
7 | 55.8 µM | CC(C)COC(=O)c1ccc2c(c1)C1C=CCC1C(C(=O)O)N2 (stereo not given)
8 | > 100 µM (inactive) | Cc1cc(NC(=O)CCc2ccc(C)o2)no1
9 | 3.5 µM | O=C(Oc1ccc(-c2ccccc2)cc1)c1cccc2c1NC(C(=O)O)C1CC=CC21 (stereo not given)
10 | 86.6 µM | CCN(CC)C(=S)c1ccc(O)c(OC)c1
11 | 58.7 µM | O=C(O)C1Nc2c(cccc2S(=O)(=O)c2ccccc2)C2C=CCC12 (stereo not given)
12 | > 100 µM (inactive) | CCCCCCCCCCCCCCCCCCC#CCCCCCCCCCCCC(=O)O
13 | 6.35 µM | COc1cc(C(=S)NC2CCCCC2)ccc1O
14 | 23.1 µM and 13.1 µM | COc1cccc2c1NC(C(=O)O)C1CC=CC21 (stereo not given)
15 | > 100 µM (inactive) | CCN1CCN(C(=S)c2ccc(O)c(OC)c2)CC1
16 | > 100 µM (inactive) | Clc1cccc(Cl)c1COc1nnc(-c2cccs2)c(-c2cccs2)n1
17 | > 100 µM (inactive) | O=C(O)c1ccc([N+](=O)[O-])c2c1NC(C(=O)O)C1CC=CC21 (stereo not given)
18 | 6.59 µM | O=C(O)c1ccc(-c2ccc(/C=c3\sc4nc5ccccc5n4c3=O)o2)cc1
19 | > 100 µM (inactive) | Cc1cc(NC(=O)c2cccs2)no1
20 | > 100 µM (inactive) | COc1ccc(N2Cc3cccc(C(=O)O)c3C2=O)cc1

Source: PubChem BioAssay AID1054 (Sanford-Burnham Center for Chemical Genomics, 2008)
